{
  "source": "patent US20260284240A1",
  "about": "“RADIOLABELED COMPOUND FOR USE IN A METHOD OF TREATING CARBONIC ANHYDRASE IX POSITIVE DISEASES” (DEBIOPHARM INTERNATIONAL S.A., priority 2023, published 2026)",
  "key": {"[1]": {"test": "Cardiovascular and respiratory safety pharmacology (jacketed external telemetry) in dogs", "format": "in vivo", "conditions": "dog, any dose or timepoint", "text": "The test item treatment led to unaffected body weights, weight gains, and food intake. Likewise, no treatment-related abnormalities were reported during ophthalmic examinations, urinalysis, blood biochemistry, coagulation, and hematology investigations. There were no related organ weight changes and macroscopic and microscopic observations at early and late necropsies. Jacketed external telemetry was used to evaluate the potential cardiovascular and respiratory effects in the Subset B. Cardiorespiratory telemetry recordings were performed during the pre-test, Day 1 and 14. […] Arterial blood pressure parameters (systolic and diastolic blood pressure and mean arterial pressure) were measured continuously during consecutive 30-minute periods at pre-dose and for up to 6 h after dosing and over consecutive 60-minute periods up to 24 h after dosing. The respiratory rate was monitored on the pre-test, Day 1 and Day 14 at 0.5, 1, 2, 3, 4, 6, 8, 12, 16, 20, and 24 h. […] The potential effects on central nervous system parameters were evaluated under restrained and non-restrained conditions using a FOB in Subset A. Neurologic, autonomic, and behavioral investigations were performed in the pre-test, pre-dose, and 1 hour after dosing on Day 1."}, "[2]": {"test": "Pharmacokinetics after single i.v. dose in healthy male CD-1 mice", "format": "in vivo", "conditions": "urine, iv, mouse, read-out: Injected dose retrieved from urine unchanged over 8 hours", "experimental": "The pharmacokinetics of DPI-4452 after a single intravenous (i.v.) dose were investigated in healthy mice. […] Plasma and urine samples collected after dosing were analyzed using a LC-HRMS (liquid chromatography coupled with high-resolution mass spectrometry) assay method. Concentration values were used for pharmacokinetic calculations.\nMale CD-1 mice (3 animals per time point and per dose level; overall, 28.2-37.6 g body weight) were administered intravenously in the tail vein in a 2 mL/kg dosing volume. Blood samples were collected in K2EDTA tubes at 5 min, 15 min, 30 min, 1 h, 2 h, 4 h, 8 h, and urine was collected over 8 hours post dose. […]\nPlasma and urine samples were analyzed by LC-HRMS after solid phase extraction, using a stable isotope-labeled internal standard (^13C6, ^15N-DPI-4452). […] The lower limit of quantification was 1.00 ng/mL in plasma and urine.\nThe non-compartmental (NCA) pharmacokinetic analysis of plasma concentration data was conducted using Phoenix 64 WinNonlin (Build 8.3.3.33) software. […] The terminal phase half-life (T1/2) was calculated by least-squares regression analysis of the terminal linear part of the log concentration-time curve. The area under the plasma concentration-time curve (AUC) was determined with the linear trapezoidal rule for increasing values and log trapezoidal rule for decreasing values up to the last measurable concentration."}, "human CAIX": {"biological_target": "T1, human CAIX (Homo sapiens, UniProt Q16790)", "T1 construct": "purchased Sino Biological 10107-H02H", "test": "Surface Plasmon Resonance (SPR) binding to captured human CAIX (Biacore T200)", "conditions": "25° C.", "description": "Surface Plasmon Resonance (SPR) studies were performed on a Biacore™ T200 using a ligand capture approach. Basically, anti-human Fc antibodies were immobilized on the surface of a sensor chip and CAIX was captured on the functionalized surface via its Fc Tag. Then, each compound was injected at increasing concentrations on the captured CAIX in order to measure the in real-time interaction of the compound to its target (i.e., the captured CAIX). The in real-time monitoring of the association and dissociation of the interaction gives access to the interaction kinetics parameters (i.e., the association and dissociation rate constants and the resulting affinity constants). […]\n• For each measurement, the raw surface plasmon resonance response (RU) was plotted against time (s) as a sensorgram using the Biacore™ T200 Control Software. • Raw data were corrected by double referencing with subtraction of the signal of both the reference flow-cell and the blank cycle. • The association and dissociation rate constants (ka and kd, respectively), as well as the dissociation constant KD and dissociation half-life t½ were determined from the corrected sensorgrams by fitting the data to a 1:1 Langmuir binding model with the Biacore™ T200 evaluation software."}, "HT-29 tumor": {"tested_on": "HT-29 tumor", "test": "Biodistribution of In-111-labeled compounds by SPECT/CT in HT-29 tumor-bearing mice", "format": "in vivo, mouse", "experimental": "(§1) The effect on tumor uptake of prior injection of gelofusine for kidney protection was investigated in mice bearing the SK-RC-52 tumor. Biodistribution was evaluated using in vivo SPECT/CT imaging. Prior to the in vivo study the compounds (ligands) were initially radiolabeled with In-111 and the stability of radiolabeled compounds was evaluated in buffer at three different timepoints.\n(§2) The study was performed in female NMRI nude mice (approximately 6 weeks of age) from Janvier Labs, France, housed up to 5 mice per cage.\n(§3) The column was washed with 2 mL water, and then the final product was eluted from the column in EtOH solution (50%) • The sample was formulated in PBS to the final concentration of 150 MBq/mL and 5 nmol/mL.\n(§4) SK-RC-52 cells were cultured in RPMI 1640 with GlutaMax-I (Thermo Fisher Scientific #61870044) supplemented with 10% fetal bovine serum+1% penicillin/streptomycin, harvested, washed twice in RPMI 1640 and resuspended at 2×10^7 cells/mL in RPMI 1640. HT-29 cells were cultured in McCoy's 5a Medium Modified (Sigma #M9309). For inoculation of HT-29 cells, cells were harvested, washed twice in PBS and resuspended at 5×10^7 cells/mL in PBS. Cells were kept on ice until inoculation.\n(§5) Animals were anaesthetized (isoflurane, 2-4% in ambient air supplemented with 100% O2) prior to tumor inoculation. The tumor cells (100 μL suspension of either SK-RC-52 cells (2×10^6 cells/animal) or HT-29 cells (5×10^6 cells/animal)) were subcutaneously inoculated in the right flank using a 1-mL syringe equipped with a 27G needle. Tumor growth and animal weight were measured twice per week. Tumor size was measured by caliper and the volume was estimated using the following formula: 0.52×(length×width^2). When tumor sizes reached 150-250 mm^3, animals were randomized into groups (n=3) of similar average tumor volume and body weight.\n(§6) Animals were injected intravenously with In-111-labeled compounds (single bolus, 22.3-31.2 MBq, ~1 nmol ligand, injection volume: 100 μL) in the lateral tail vein using a 29G syringe.\n(§7) CT was performed with helical scan, 300 ms exposure, reconstruction resolution of 250 μm. SPECT was performed with multi-pinhole scan and a 30 s frame time. For the quantification of the radioactivity uptake, regions of interests (ROIs) were drawn over the tumor, kidney, liver, and heart (estimate of blood) identified on the images. Uptake was expressed as percent of injected dose per gram tissue (% ID/g)."}, "[3]": {"test": "Biodistribution of In-111-labeled compounds by SPECT/CT in HT-29 tumor-bearing mice", "format": "in vivo, mouse", "conditions": "mouse", "experimental": "as §1, §2, §3, §4, §5, §6, §7"}},
  "note": "Like-named read-outs stand apart in the source and are kept apart here. Starred links: 1 amine or outer side, 2 acyl side, 3 side chain; linkers in the order of their positions; H or OH if unused. Positions of bridges follow the written chain, without caps; N, C: chain ends. Non-standard residues stand in square brackets, D forms with d. Residues, ends and D or L forms follow the SMILES beside them. *: point of attachment. Phe(3-NHCO(CH2)3SO2NH2) = N[C@@H](Cc1cccc(NC(=O)CCCS(N)(=O)=O)c1)C(=O)O; DOTA = O=C(O)CN1CCN(CC(=O)O)CCN(CC(=O)*)CCN(CC(=O)O)CC1; mXylylene = c1cc(C[*:1])cc(C[*:2])c1; X1 = O=C(CN1CCN([*:1])CC1)[*:2]",
  "data": [
    {"smiles": "CC(C)C[C@@H]1NC(=O)[C@H](Cc2cccc(NC(=O)CCCS(N)(=O)=O)c2)NC(=O)[C@H](CC(=O)O)NC(=O)[C@H]2CCCN2C(=O)[C@H](CCC(=O)O)NC(=O)[C@@H](NC(=O)[C@H](CCC(N)=O)NC(=O)CN2CCN(C(=O)CN3CCN(CC(=O)O)CCN(CC(=O)O)CCN(CC(=O)O)CC3)CC2)CSCc2cccc(c2)CSC[C@@H](C(N)=O)NC(=O)[C@H](CO)NC(=O)[C@H](Cc2c[nH]c3ccccc23)NC(=O)[C@H]([C@@H](C)O)NC1=O", "note": "[DPI-4452, DOTA-PPAc-Gln-[Cys(3MeBn)-Glu-pro-Asp-Af3(Cpsu)-Leu-Thr-Trp-Ser-Cys]-NH2] ({DOTA}-[X1]QCE[dP]D[Phe(3-NHCO(CH2)3SO2NH2)]LTWSC-NH2; linker 3-12 via mXylylene)", "values": [
      {"measurement": "Cardiovascular or respiratory parameters (heart rate, arterial blood pressure, ECG, respiratory rate)", "setting": "[1]", "result": "no related effect on cardiovascular or respiratory parameters"},
      {"measurement": "dose excreted at 8 h", "setting": "[2]; i.v. 0.7 mg/kg", "result": 3.57, "unit": "%"},
      {"measurement": "dose excreted at 8 h", "setting": "[2]; i.v. 5.5 mg/kg", "result": 8.89, "unit": "%"},
      {"measurement": "t1/2 (dissociation half-life)", "setting": "human CAIX", "result": 1.65, "unit": "h"},
      {"measurement": "% remaining tumor uptake at 24 h p.i.", "setting": "HT-29 tumor; HT-29", "result": "65.8 ± 3.8", "unit": "%"},
      {"measurement": "Time to peak uptake in tumor", "setting": "HT-29 tumor; HT-29", "result": 2, "unit": "h"},
      {"measurement": "Blood uptake at 4 h p.i.", "setting": "HT-29 tumor; HT-29 mice", "result": "0.04 ± 0.002", "unit": "% ID/g"},
      {"measurement": "Kidney uptake at 24 h p.i.", "setting": "HT-29 tumor; HT-29 mice", "result": "1.41 ± 0.11", "unit": "% ID/g"},
      {"measurement": "Liver uptake at 4 h p.i.", "setting": "HT-29 tumor; HT-29 mice", "result": "0.12 ± 0.005", "unit": "% ID/g"},
      {"measurement": "tissue uptake", "setting": "[3]; ht-29 tumor, HT-29, Mean ± SEM, N=3, read-out: Peak Tumor Uptake", "result": "5.21 ± 1.22", "unit": "%ID/g"},
      {"measurement": "tissue uptake", "setting": "[3]; kidney, HT-29 mice, read-out: Peak Kidney uptake", "result": "5.37 ± 1.45", "unit": "%ID/g"}
    ]}
  ]
}
